Where only a bound is given, the exact number is not on record here.

One test deals with T1, EGFR (d746-750) (Homo sapiens, UniProt P00533, DEL746-750).
T1 construct: purchased Carna Biosciences, Inc
Nature of the test: EGFR (d746-750) kinase inhibitory activity. It counts as biochemical. To be noted: ATP 5 μM, kinase reaction 90 minutes. The essentials: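 Recombinant human EGFR (d746-750) with 250 nM biotinylated peptide, 5 μM ATP, 10 mM MgCl2 and 10 mM MnCl2, 2.5% DMSO, reacted 90 min at 25° C., stopped with EDTA. Phosphotyrosine detected by TR-FRET (Eu-PT66 antibody/APC-streptavidin, 665/620 nm ratio), with EDTA-pre-stopped background; IC50 (nM) from inhibition curve fit.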

A further test addresses T2, EGFR (WT) (Homo sapiens, UniProt P00533).
T2 construct: expressing a cytoplasmic domain of human EGFR (WT) with its N-terminus fused to a FLAG tag; FLAG (N); made in house; host or cells: insect Sf9 cells, baculovirus expression system
Description: EGFR (WT) kinase inhibitory activity. It counts as biochemical. The settings on record: substrate peptide 500 nM. Put shortly: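 The kinase was the cytoplasmic domain of human EGFR WT, N-terminally FLAG-tagged, expressed in Sf9 cells via baculovirus and purified on anti-FLAG agarose. Phosphotyrosine was detected by Eu-PT66/APC-SA TR-FRET (665/620 nm ratio), and IC50 was fitted from % inhibition.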

The target of another test is T3, EGFR (T790M/L858R) (Homo sapiens, UniProt P00533, L858R/T790M).
T3 construct: purchased Carna Biosciences, Inc
Nature of the test: EGFR (T790M/L858R) kinase inhibitory activity. It counts as biochemical. To be noted: ATP 1 μM, 25° C. for 120 minutes.

Test [1] deals with A431 expressing EGFR (WT). Description: Growth inhibition, A431 expressing EGFR (WT). It counts as cell-based. To be noted: Homo sapiens, A-431, 72 h; cultured three days, CellTiter-Glo. The essentials:
(§1)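 Cells seeded and grown 1 day, then exposed 3 days at 37 °C/5% CO2 to serial dilutions (final DMSO 0.2%). CellTiter-Glo luminescence was read before dosing and after 3 days; GI50 from inhibition (C−T)/(C−C0)×100 by curve fitting.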
In general terms: In ATP-based viability assays light output follows the ATP content of the culture.

Test [2] deals with HCC827 expressing EGFR (d746-750). Nature of the test: Growth inhibition, HCC827 expressing EGFR (d746-750). Format: cell-based. The settings on record: Homo sapiens, HCC827, 72 h; cultured three days, CellTiter-Glo. The essentials:
as §1

A further test concerns the target T4, EGFR (d746-750/T790M) (Homo sapiens, UniProt P00533, DEL746-750/T790M).
T4 construct: purchased Carna Biosciences, Inc
Nature of the test: EGFR (d746-750/T790M) kinase inhibitory activity. Format: biochemical. The settings on record: ATP 1.5 μM. The essentials: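 Recombinant human EGFR d746-750/T790M phosphorylating biotinylated peptide (250 nM) with 1.5 μM ATP, 10 mM MgCl2 and MnCl2, 2.5% DMSO, 120 min at 25 °C. EDTA-stopped; phosphotyrosine detected by Eu-PT66/APC-SA TR-FRET (665/620 nm ratio). IC50 from percent inhibition curves, EDTA-first samples as background.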

In test [3] the test system is NCI-H1975 expressing EGFR (T790M/L858R). Nature of the test: Growth inhibition, NCI-H1975 expressing EGFR (T790M/L858R). Format: cell-based. The settings on record: Homo sapiens, NCI-H1975, 72 h; cultured three days, CellTiter-Glo. The essentials: as §1
The next test has as its target T5, EGFR (L858R) (Homo sapiens, UniProt P00533, L858R).
T5 construct: purchased Carna Biosciences, Inc
Nature of the test: EGFR (L858R) kinase inhibitory activity. It counts as biochemical. To be noted: ATP 4 μM. The essentials:
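Recombinant human EGFR (L858R) was incubated with 250 nM biotinylated peptide, 4 μM ATP, 10 mM MgCl2 and 10 mM MnCl2 in 2.5% DMSO for 120 min at 25 °C. The reaction was stopped with EDTA, and phosphotyrosine was detected by TR-FRET (Eu-PT66 antibody/APC-SA, 665/620 nm ratio). IC50 was obtained from the inhibition curves.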

T2 sequence (P00533 669-1210 limits assumed): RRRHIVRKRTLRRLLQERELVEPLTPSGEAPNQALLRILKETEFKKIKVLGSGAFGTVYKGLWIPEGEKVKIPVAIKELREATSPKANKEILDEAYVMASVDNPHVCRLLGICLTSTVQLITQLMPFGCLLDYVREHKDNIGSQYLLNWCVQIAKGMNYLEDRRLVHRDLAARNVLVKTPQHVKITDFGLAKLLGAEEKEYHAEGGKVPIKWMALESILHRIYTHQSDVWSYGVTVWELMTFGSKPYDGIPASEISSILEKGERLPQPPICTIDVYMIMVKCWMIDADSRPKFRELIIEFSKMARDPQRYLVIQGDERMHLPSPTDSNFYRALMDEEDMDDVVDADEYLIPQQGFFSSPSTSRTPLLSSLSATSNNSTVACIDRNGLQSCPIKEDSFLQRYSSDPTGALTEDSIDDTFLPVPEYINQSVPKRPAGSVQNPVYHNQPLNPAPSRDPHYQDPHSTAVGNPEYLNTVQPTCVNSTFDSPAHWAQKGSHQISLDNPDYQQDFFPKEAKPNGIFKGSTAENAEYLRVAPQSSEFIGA
T4 sequence (P00533 with tags, fused parts or gaps DEL746-750/T790M limits assumed): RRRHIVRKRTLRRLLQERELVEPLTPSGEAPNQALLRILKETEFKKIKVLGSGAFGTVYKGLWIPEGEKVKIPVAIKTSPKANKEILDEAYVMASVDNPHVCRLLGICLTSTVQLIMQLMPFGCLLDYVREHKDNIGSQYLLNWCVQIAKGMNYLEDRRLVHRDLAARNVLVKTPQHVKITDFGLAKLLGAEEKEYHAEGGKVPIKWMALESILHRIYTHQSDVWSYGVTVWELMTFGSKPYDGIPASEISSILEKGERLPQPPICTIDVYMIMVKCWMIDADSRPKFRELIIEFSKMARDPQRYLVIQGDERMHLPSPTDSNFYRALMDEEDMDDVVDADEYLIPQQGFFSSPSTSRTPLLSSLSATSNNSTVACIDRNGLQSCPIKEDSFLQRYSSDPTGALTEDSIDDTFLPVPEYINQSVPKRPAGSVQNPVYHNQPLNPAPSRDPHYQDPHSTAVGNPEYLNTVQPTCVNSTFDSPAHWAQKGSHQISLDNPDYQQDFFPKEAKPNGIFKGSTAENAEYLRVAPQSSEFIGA
T1 sequence (P00533 with tags, fused parts or gaps DEL746-750 limits assumed): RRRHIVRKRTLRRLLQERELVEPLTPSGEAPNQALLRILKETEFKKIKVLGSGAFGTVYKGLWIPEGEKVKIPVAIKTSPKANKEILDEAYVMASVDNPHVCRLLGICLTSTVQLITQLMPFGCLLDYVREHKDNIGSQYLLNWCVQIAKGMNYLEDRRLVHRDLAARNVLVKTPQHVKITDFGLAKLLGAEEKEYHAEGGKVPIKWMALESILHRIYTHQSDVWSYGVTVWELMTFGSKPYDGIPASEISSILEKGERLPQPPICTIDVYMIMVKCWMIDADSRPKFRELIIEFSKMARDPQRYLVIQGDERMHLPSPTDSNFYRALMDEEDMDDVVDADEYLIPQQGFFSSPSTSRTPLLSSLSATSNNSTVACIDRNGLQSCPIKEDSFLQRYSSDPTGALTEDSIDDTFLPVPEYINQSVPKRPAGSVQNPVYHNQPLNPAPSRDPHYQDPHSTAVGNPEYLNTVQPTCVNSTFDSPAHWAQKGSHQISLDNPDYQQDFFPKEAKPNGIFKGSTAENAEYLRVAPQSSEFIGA
T5 sequence (P00533 25-1210 L858R): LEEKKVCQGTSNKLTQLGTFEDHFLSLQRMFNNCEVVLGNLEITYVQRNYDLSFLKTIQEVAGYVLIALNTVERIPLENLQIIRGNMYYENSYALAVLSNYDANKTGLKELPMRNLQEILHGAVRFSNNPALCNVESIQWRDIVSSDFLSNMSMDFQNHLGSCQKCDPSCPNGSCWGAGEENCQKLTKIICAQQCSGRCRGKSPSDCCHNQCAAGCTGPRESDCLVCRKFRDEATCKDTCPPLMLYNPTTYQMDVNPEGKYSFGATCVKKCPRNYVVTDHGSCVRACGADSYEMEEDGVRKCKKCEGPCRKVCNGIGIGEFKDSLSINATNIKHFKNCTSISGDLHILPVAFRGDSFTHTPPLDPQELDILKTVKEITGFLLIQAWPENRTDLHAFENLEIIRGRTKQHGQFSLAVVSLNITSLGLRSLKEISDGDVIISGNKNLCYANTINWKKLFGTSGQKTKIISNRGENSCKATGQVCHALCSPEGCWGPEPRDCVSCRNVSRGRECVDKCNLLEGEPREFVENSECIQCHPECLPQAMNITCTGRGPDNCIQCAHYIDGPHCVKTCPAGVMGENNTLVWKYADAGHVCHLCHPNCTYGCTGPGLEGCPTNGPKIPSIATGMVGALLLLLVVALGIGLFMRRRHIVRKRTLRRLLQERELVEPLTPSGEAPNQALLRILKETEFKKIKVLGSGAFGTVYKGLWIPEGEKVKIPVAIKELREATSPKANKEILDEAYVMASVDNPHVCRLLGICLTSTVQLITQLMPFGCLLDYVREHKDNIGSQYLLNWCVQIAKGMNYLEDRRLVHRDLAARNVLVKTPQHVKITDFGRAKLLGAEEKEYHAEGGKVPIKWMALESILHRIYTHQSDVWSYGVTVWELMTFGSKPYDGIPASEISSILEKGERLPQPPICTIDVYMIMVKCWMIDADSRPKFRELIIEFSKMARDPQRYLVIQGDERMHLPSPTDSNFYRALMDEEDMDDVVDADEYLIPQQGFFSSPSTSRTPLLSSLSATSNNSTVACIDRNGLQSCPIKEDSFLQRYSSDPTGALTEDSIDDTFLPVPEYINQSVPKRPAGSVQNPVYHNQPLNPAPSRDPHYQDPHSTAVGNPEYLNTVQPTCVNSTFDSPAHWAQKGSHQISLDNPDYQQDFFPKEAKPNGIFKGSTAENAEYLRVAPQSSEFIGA
T3 sequence (P00533 25-1210 T790M/L858R): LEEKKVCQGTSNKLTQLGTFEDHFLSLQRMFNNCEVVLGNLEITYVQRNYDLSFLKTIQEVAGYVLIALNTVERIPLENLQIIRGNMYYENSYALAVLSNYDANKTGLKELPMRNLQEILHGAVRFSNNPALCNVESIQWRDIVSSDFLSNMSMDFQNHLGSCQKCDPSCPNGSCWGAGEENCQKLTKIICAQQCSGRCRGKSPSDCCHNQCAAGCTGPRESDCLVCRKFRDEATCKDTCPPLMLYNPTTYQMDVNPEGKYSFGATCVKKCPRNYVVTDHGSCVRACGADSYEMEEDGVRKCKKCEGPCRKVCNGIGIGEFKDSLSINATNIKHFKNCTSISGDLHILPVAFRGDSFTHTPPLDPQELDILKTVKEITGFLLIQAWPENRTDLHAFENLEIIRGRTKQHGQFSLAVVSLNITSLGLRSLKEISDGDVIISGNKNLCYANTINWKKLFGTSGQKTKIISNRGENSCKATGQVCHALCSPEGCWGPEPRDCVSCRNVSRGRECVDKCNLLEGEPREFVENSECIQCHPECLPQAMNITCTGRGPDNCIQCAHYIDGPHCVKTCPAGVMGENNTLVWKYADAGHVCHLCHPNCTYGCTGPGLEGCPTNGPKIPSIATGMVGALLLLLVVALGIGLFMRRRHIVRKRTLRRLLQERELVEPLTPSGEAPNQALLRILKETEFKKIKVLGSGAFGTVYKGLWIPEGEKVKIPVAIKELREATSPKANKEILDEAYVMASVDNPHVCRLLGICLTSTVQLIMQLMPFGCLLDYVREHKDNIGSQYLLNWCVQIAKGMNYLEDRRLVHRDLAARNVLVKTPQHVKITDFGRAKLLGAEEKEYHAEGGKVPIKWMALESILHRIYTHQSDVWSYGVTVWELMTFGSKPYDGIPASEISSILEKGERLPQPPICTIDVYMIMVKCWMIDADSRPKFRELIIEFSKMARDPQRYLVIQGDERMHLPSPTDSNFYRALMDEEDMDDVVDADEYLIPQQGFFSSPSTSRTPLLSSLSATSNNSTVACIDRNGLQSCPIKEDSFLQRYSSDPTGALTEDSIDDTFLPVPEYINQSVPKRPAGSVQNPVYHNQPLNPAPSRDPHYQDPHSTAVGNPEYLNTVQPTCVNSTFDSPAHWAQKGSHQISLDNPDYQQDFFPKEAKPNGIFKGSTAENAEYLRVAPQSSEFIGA

For orientation: IC50 means the concentration that inhibits the measured activity by half. For orientation: GI50 means the concentration that inhibits growth by half. A lower GI50 goes with greater sensitivity of the cells. For the compound `C=CC(=O)N[C@@H]1CC(=C)c2c(-c3cnc4ccccc4c3)c3c(N)ncnc3n2C1` [Example 17, (R)—N-(4-amino-6-methylene-5-(quinolin-3-yl)-6,7,8,9-tetrahydropyrimido[5,4-b]indolizin-8-yl)acrylamide], the IC50 at EGFR (d746-750) is 39 nM; against EGFR (WT) it was 580 nM; on EGFR (T790M/L858R), 23 nM; against EGFR (d746-750/T790M), 11 nM; against EGFR (L858R), 50 nM. Moreover, the GI50 was more than 10000 nM in test [1], 160 nM in test [2] and 2900 nM in test [3].

`C=CC(=O)N[C@@H]1CCn2c(c(-c3cnc4ccccc4c3)c3c(N)ncnc32)C(=C)C1` [Example 18, (S)—N-(4-amino-6-methylene-5-(quinolin-3-yl)-7,8,9,10-tetrahydro-6H-pyrimido[5′,4′:4,5]pyrrolo[1,2-a]azepin-8-yl)acrylamide]: the IC50 on EGFR (d746-750) worked out at 4.5 nM; against EGFR (WT), 68 nM; on EGFR (T790M/L858R), 4.7 nM; against EGFR (d746-750/T790M), 1.3 nM; against EGFR (L858R), 12 nM. Moreover, the GI50 is 4000 nM in test [1], 8.9 nM in test [2] and 160 nM in test [3].

In the case of `C=CC(=O)N[C@H]1C/C(=C\C)c2c(-c3cnc4ccccc4c3)c3c(N)ncnc3n2C1` [Example 19, (S,E)-N-(4-amino-6-ethylidene-5-(quinolin-3-yl)-6,7,8,9-tetrahydropyrimido[5,4-b]indolizin-8-yl)acrylamide], the IC50 on EGFR (d746-750) stood at 0.42 nM; against EGFR (WT), 2.2 nM; at EGFR (T790M/L858R), 0.26 nM; against EGFR (d746-750/T790M), 0.28 nM; on EGFR (L858R), 0.27 nM. Also, the GI50 is 990 nM in test [1], 5.6 nM in test [2] and 49 nM in test [3].

In the case of `C=CC(=O)N(C)[C@H]1Cn2c(c(-c3cnc4ccccc4c3)c3c(N)ncnc32)C1=C` [Example 21, (R)—N-(4-amino-6-methylene-5-(quinolin-3-yl)-7,8-dihydro-6H-pyrimido[5,4-b]pyrrolizin-7-yl)-N-methylacrylamide], the IC50 against EGFR (d746-750) turned out to be 0.72 nM; on EGFR (WT) it was 7.8 nM; against EGFR (T790M/L858R), 0.6 nM; against EGFR (d746-750/T790M), 0.34 nM; on EGFR (L858R) it was 1.1 nM. Further, the figures for the GI50 in test [1], in test [2] and in test [3] were 2600 nM, 8.1 nM and 56 nM, respectively.

Consider `C=CC(=O)N(C)[C@@H]1CC(=C)c2c(-c3cnc4ccccc4c3)c3c(N)ncnc3n2C1` [Example 22, (R)—N-(4-amino-6-methylene-5-(quinolin-3-yl)-6,7,8,9-tetrahydropyrimido[5,4-b]indolizin-8-yl)-N-methylacrylamide], for which the IC50 at EGFR (d746-750) came out at 0.33 nM; on EGFR (WT) it was 5.5 nM; against EGFR (T790M/L858R), 0.35 nM; against EGFR (d746-750/T790M), 0.23 nM; against EGFR (L858R) it was 0.37 nM. The GI50 turned out to be 1500 nM in test [1], 5.7 nM in test [2] and 56 nM in test [3].

`C=CC(=O)N(C)[C@@H]1C=C(C)c2c(-c3cnc4ccccc4c3)c3c(N)ncnc3n2C1` [Example 23, (R)—N-(4-amino-6-methyl-5-(quinolin-3-yl)-8,9-dihydropyrimido[5,4-b]indolizin-8-yl)-N-methylacrylamide]: the 50% inhibitory concentration (IC50) at EGFR (d746-750) worked out at 0.29 nM; against EGFR (WT) it was 7.3 nM; against EGFR (T790M/L858R), 0.44 nM; at EGFR (d746-750/T790M), 0.3 nM; against EGFR (L858R) it was 0.63 nM. For the same compound, the concentration for 50% growth inhibition (GI50) amounted to 5100 nM in test [1], 3.3 nM in test [2] and 47 nM in test [3].

As to `C=CC(=O)N[C@@H]1Cn2c(c(-c3cnc4ccccc4c3)c3c(N)ncnc32)C1C` (stereo partly drawn) [Example 24, N-((7S)-4-amino-6-methyl-5-(quinolin-3-yl)-7,8-dihydro-6H-pyrimido[5,4-b]pyrrolizin-7-yl)acrylamide], the IC50 against EGFR (d746-750) came out at 0.85 nM; on EGFR (WT), 8.6 nM; at EGFR (T790M/L858R), 0.83 nM; against EGFR (d746-750/T790M), 0.31 nM; at EGFR (L858R), 1.1 nM. In addition, the results for the GI50 in test [1], in test [2] and in test [3] were 3400 nM, 4.9 nM and 110 nM, respectively.

The values above are taken from US9758526B2, “Quinoline-substituted compound” (TAIHO PHARMACEUTICAL CO., LTD., priority 2013, dated 2017).
